Among the data in US6423689B1, “Peptidyl calcium channel blockers” (Warner-Lambert Company, priority 1997, dated 2002) are IC50 values, retold here.

The test system of this experiment is L-type Ca2+ channels in GH3 cells. Briefly: Inhibition of L-type calcium flux in GH3 cells (Indo-1 fluorescence). Format: cell-based, rat. On the procedure:
Measurement of L-type Ca^2+ Channel Blocking Potencies of Compounds in GH3 Cells Using the Fluorescent Ca^2+ Indicator Indo-1
The GH3 rat pituitary cell line was obtained from the American Type Culture Collection (Rockville, Md.). Cells were grown in Ham's F-10 medium with 15% horse serum, 2.5% fetal bovine serum (FBS), and […] (Gibco, Gaithersburg, Md.). Confluent cells were detached using 0.5 mM EDTA and loaded with 5 μM Indo-acetoxymethyl ester (Molecular Probes, Eugene, Oreg.) in 1% bovine serum albumin (BSA) containing assay buffer (10 mM HEPES/Tris pH 7.4 in Hank's Balanced Salt Solution without bicarbonate or phenol red) for 60 minutes at 30° C. Loaded cells were washed twice, resuspended (approx. 10^7 cells/mL) in assay buffer containing 0.5% BSA, and kept on ice until use (<3 hrs). Different concentrations of the test compounds (60 μL in dimethyl sulfoxide) or controls were added to 5.94 mL of assay buffer containing approximately 3×10^6 loaded cells, and the samples were incubated for 10 minutes at 30° C. After incubation, samples were aliquoted into 3 cuvettes, and their fluorescence was measured with a Photon Technology International (PTI, South Brunswick, N.J.) Model RF-F3004 spectrofluorometer thermostatted at 30° C. Excitation was set at 350 nm and dual emissions were recorded at 400 and 490 nm. Basal emission signals were acquired for 20 seconds, followed by the depolarization of cells by the addition of 200 μL of a stimulation solution (1 M KCl, 68 mM CaCl2) to the stirred cuvette. Emission signals were acquired for an additional 50 seconds after depolarization. Ratio of emission signals (F400 nm/F490 nm), which is proportional to intracellular Ca^2+ concentration, was plotted against time, and the difference between the emission ratio 50 seconds after stimulation and its basal value (before stimulation) was determined. Values obtained in this way were considered as measures of depolarization-induced Ca-flux through L-type channels and plotted as a function of drug concentration. IC50 values of test compounds were calculated by fitting a four-parameter logistic function to the data using the least squares method.
(In general: Calcium assays in cells follow changes in intracellular calcium, usually with a dye or a luminescent sensor.)

The term IC50 denotes the midpoint of a concentration-inhibition curve. Take `CC(C)C[C@H](NC(=O)N1CCCCCC1)C(=O)N[C@@H](Cc1ccc(OCc2ccccc2)cc1)C(=O)OC(C)(C)C` [Example 1]: the IC50 was 4.48 µM.
Regarding `CC(C)(C)OC(=O)[C@H](Cc1ccc(OCc2ccccc2)cc1)NC(=O)[C@H](Cc1ccccc1)NC(=O)N1CCCCCC1` [Example 16], the IC50 was determined as 4.3 µM.
